Molecules are shown by their SMILES. Where only a bound is given, the exact number is not on record here.

The record followed here is patent US10206401B2, “Pyridine compounds for controlling invertebrate pests II” (BASF SE, priority 2010, dated 2019).

Holding throughout (type): in vivo
Experiment [1] has as its system Cowpea Aphid (Aphis craccivora). Description: Cowpea aphid, potted cowpea plants sprayed. Particulars: population reduction assessed after 24, 72 and 120 hours, read-out: mortality in comparison with untreated controls. On the procedure:
II.3 Cowpea Aphid (Aphis craccivora)
The active compounds were formulated in 50:50 (vol/vol) acetone:water. The test solution was prepared at the day of use.
Potted cowpea plants colonized with 100-150 aphids of various stages were sprayed after the pest population had been recorded. Population reduction was assesed after 24, 72, and 120 hours.

Experiment [2] concerns Cotton Aphid (Aphis gossypii, Mixed Life Stages). The experiment in a line: Cotton aphid, method a (cotyledon dip). Particulars: 120 h, cotton cotyledons dipped, after 5 days, read-out: mortality in comparison with untreated controls. From the text: II.1 Cotton Aphid (Aphis gossypii, Mixed Life Stages)
The active compounds were formulated in 50:50 (vol/vol) acetone:water and 100 ppm Kinetica™ surfactant.
Cotton plants at the cotyledon stage (one plant per pot) were infested by placing a heavily infested leaf from the main colony on top of each cotyledon. The aphids were allowed to transfer to the host plant overnight, and the leaf used to transfer the aphids was removed. The cotyledons were dipped in the test solution and allowed to dry. After 5 days, mortality counts were made.

Experiment [3] deals with Vetch Aphid (Megoura viciae). The experiment in a line: Vetch aphid, bean leaf disks in microtiterplates. Particulars: foliar, 144 h, test solution 2500 mg/L, bean leaf disks sprayed, 6 days. On the procedure:
II.4 Vetch Aphid (Megoura viciae)
The active compounds were formulated in 1:3 (vol/vol) DMSO:water with different concentrations of formulated compounds.
Bean leaf disks were placed into microtiterplates filled with 0.8% agar-agar and 2.5 ppm OPUS™. The leaf disks were sprayed with 2.5 μl of the test solution and 5 to 8 adult aphids were placed into the microtiterplates which were then closed and kept at 23±1° C. and 50±5% relative humidity under fluorescent light for 6 days. Mortality was assessed on the basis of vital, reproduced aphids. Aphid mortality and fecundity was then visually assessed.

In general, mortality refers to the percentage killed. As to `Cc1c(C(=O)Nc2cccnc2)nnn1Cc1ccccc1` [Example 2, 1-Benzyl-5-methyl-1H-[1,2,3]triazole-4-carboxylic acid pyridin-3-ylamide], the results for the mortality at 300 ppm in experiment [1] and in experiment [2] were not below 90% and not below 75%, respectively. Further, in experiment [3], the mortality at 2500 µg/mL is not below 90%.
